Literature values, collected in publication PMC12676331 (ACS Omega, 2025).

Columns and labels:
P23H rod opsin = conditions: ref number not given
G-protein = conditions: in vitro and in vivo; ref number not given
[1] = test system: T17M Rho mouse model of RP; conditions: ref number not given
rod opsin mutants = conditions: in vitro; ref number not given

| Compound | maturation and membrane expression of P23H rod opsin (P23H rod opsin) | G-protein activation (G-protein) | photoreceptor survival [1] | folding and membrane trafficking of rod opsin mutants (rod opsin mutants) |
| --- | --- | --- | --- | --- |
| 11-cis-7-membered-ring-retinal | improve the maturation and membrane expression of P23H rod opsin | does not activate G-protein |  |  |
| 11-cis-6-membered-ring-retinal |  | can partially activate G-protein |  |  |
| CC1=C(/C=C/C(=O)N2CCN(C(N)=O)CC2)C(C)(C)CCC1 [SRD005825] |  |  | improved photoreceptor survival | promoted proper folding and membrane trafficking |
| CC(=C/C(=O)O)/C=C/C=C(\C)C1C=C2C(C)(C)CCCC2(C)O1 (stereo not drawn) [13-cis-5,8-ERA, 8-epoxy-13-cis-retinoic acid] |  |  |  | promoted proper folding and membrane trafficking |
